Data taken from US20190117616A1, “METHOD FOR REGULATING KDM4A, KDM4B, AND KDM4C ACTIVITY” (National Tsing Hua University, priority 2017, published 2019).

Assays:
KDM4B = biological target: T1, KDM4B (Homo sapiens, UniProt O94953); experiment: KDM4B enzymatic inhibition (residual activity, IC50, kinetics); assay type: biochemical; details: for Inhibitory effects of Myricetin analogues against KDM4B activity: Table 1 (not given), 100 μM compounds
T1 sequence (O94953 1-1096): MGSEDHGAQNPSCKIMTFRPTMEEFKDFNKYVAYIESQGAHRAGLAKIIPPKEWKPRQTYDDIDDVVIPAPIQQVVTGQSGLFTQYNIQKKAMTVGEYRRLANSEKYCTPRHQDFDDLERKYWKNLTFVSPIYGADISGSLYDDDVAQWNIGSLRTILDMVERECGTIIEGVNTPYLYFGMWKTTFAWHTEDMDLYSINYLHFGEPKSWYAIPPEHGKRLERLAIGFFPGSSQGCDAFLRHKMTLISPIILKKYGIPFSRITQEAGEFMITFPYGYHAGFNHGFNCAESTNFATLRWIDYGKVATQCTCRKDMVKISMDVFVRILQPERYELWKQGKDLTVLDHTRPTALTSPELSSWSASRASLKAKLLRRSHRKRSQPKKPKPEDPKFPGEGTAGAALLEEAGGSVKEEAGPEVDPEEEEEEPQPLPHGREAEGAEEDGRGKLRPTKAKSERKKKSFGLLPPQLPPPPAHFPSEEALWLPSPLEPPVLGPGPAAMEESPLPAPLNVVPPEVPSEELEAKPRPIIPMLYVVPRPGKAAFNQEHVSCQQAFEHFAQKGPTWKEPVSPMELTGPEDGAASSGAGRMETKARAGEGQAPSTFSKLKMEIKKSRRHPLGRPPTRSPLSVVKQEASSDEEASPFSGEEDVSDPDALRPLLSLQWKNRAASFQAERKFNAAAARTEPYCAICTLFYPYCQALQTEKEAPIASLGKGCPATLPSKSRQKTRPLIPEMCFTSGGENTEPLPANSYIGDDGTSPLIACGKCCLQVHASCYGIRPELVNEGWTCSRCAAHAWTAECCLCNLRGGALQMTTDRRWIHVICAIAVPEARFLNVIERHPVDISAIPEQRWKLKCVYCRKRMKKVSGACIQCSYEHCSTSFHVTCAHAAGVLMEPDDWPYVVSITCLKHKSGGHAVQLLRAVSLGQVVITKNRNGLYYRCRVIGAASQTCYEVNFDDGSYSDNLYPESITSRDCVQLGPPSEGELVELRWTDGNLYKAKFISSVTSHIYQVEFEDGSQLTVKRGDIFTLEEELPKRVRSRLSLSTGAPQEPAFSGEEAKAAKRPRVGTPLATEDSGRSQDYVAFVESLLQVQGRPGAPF

[1] = literature; cited from earlier work
herpes virus = details: literature; cited from earlier work
JMJD2E/KDM4E = biological target: T2, JMJD2E/KDM4E (Homo sapiens, UniProt B2RXH2); details: in vitro, literature; cited from earlier work
T2 sequence (B2RXH2 1-506): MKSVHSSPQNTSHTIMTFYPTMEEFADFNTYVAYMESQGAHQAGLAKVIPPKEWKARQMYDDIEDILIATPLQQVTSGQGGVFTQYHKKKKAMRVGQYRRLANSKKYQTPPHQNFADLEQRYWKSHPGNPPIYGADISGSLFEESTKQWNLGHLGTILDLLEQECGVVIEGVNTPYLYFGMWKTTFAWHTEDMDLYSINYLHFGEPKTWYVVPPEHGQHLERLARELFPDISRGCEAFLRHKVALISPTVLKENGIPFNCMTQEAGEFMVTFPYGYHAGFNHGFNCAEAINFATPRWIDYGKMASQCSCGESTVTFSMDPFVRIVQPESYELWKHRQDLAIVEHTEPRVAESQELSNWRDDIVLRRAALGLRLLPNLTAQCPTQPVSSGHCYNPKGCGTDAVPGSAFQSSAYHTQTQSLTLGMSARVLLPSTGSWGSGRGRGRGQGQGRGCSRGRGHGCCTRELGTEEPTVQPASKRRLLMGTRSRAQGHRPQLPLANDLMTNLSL

PZ-HPV-7 cells = experiment: MTT assay, immortalized normal PZ-HPV-7; assay type: cell-based; details: different concentrations over 4 days
Text: (§1) Whether Myricetin blocked cell growth of AR+ cells was next evaluated.

[2] = system: H3K9me3/H3K36me3 in C4-2B cells; experiment: H3K9me3 and H3K36me3 levels in treated C4-2B cells, western blot; assay type: cell-based; details: treated for two days, cell lysates
Text: FIG. 5B: H3K9me3 and H3K36me3 levels in Myricetin-treated C4-2B cells for two days. The H3K9me3 and H3K36me3 signals are detected in cell lysates by western blot analysis.
as §1

KDM4C [3] = biological target: T3, KDM4C (Homo sapiens, UniProt Q9H3R0); experiment: H3 demethylation by bacteria-expressed KDM4C, western blot; assay type: biochemical; details: 100 μM inhibitor, 10 μM enzyme, 5 μM H3, 37° C., 30 min
T3 sequence (Q9H3R0 1-1056): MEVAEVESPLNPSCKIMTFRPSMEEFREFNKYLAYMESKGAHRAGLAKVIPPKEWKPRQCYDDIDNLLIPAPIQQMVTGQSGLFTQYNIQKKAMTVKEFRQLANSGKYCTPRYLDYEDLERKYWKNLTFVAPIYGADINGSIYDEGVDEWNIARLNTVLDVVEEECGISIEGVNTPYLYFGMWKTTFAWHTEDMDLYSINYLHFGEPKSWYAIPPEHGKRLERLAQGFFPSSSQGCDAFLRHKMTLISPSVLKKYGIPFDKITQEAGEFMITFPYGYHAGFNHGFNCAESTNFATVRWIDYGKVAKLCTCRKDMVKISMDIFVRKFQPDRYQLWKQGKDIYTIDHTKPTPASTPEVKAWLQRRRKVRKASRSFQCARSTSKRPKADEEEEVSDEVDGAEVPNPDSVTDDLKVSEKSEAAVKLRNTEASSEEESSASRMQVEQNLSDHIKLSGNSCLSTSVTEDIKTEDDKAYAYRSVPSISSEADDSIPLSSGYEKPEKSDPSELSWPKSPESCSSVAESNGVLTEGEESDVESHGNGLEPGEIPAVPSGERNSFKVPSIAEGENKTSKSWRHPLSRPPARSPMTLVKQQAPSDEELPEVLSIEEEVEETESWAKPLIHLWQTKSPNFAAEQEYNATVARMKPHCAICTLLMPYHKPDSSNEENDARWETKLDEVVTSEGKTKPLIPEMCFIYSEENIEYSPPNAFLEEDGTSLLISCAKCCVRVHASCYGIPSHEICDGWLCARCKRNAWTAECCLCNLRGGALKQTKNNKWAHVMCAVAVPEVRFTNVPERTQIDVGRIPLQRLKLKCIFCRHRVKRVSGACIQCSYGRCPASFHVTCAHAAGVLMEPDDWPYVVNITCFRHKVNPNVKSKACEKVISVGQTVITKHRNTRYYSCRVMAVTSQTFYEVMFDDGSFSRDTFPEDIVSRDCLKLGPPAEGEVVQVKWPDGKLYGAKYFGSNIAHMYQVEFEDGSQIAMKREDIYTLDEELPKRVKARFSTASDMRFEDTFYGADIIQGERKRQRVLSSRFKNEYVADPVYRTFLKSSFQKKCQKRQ

KDM4C [4] = biological target: T3, KDM4C; details: toward α-ketoglutarate, FIG. 2A
C4-2B cells [5] = experiment: MTT cell proliferation assay, C4-2B; assay type: cell-based; details: different concentrations over 4 days
Text: as §1

C4-2B cells [6] = system: C4-2B cells
LNCaP cells = experiment: MTT cell growth assay, LNCaP; assay type: cell-based; details: different concentrations over 4 days
Text: as §1

C4-2B xenografts [7] = experiment: C4-2B xenograft tumor growth in nude mice; assay type: in vivo; details: C4-2B xenograft model
C4-2B cells [8] = experiment: Cell viability of C4-2B, PLGA-Myricetin versus free Myricetin; details: read-out: IC50, cell viability (cytotoxicity) of C4-2B cells
C4-2B xenografts [9] = experiment: Ki-67 and CD31 immunohistochemistry of xenograft tumor sections; assay type: in vivo, nude mice; details: FIG. 7B
Protocol: FIG. 7B: Ki-67 and CD31 immunohistochemistry staining of the tumor sections isolated from the xenografts.
The endothelial cell-specific marker CD31 in xenografts was also determined.

Which “Inhibitory effects of Myricetin analogues against KDM4B activity” value (KDM4B) does the source give for `O=c1c(O)c(-c2ccc(O)c(O)c2)oc2c(O[C@@H]3O[C@H](CO)[C@@H](O)[C@H](O)[C@H]3O)c(O)cc(O)c12` [Gossypin] here?
The value was “significant inhibitory effects”.

With `COc1cc(-c2oc3cc(O)cc(O)c3c(=O)c2O)ccc1O` [Isorhamnetin] as the compound, how does the “Inhibitory effects of Myricetin analogues against KDM4B activity” value (KDM4B) read?
The value was “significant inhibitory effects”.

With `O=c1c(O)c(-c2ccc(O)cc2)oc2cc(O)cc(O)c12` [Kaempferol] as the compound, how does the “Inhibitory effects of Myricetin analogues against KDM4B activity” value (KDM4B) read?
Its value is “significant inhibitory effects”.

With `CN(C)CCCNC(=O)c1ccc(-c2cc(O)c3ncccc3c2)cc1` [ML324] as the compound, how does the Cell permeability [1] read?
Its Cell permeability is “good”.

And the “In vitro ADME properties” value [1]?
The value was “good”.

And the “KDM4A-dependent herpes virus-mediated replication in infected cells” value (herpes virus)?
Its value is “blocked”.

And the “Inhibitory activity toward JMJD2E/KDM4E” value (JMJD2E/KDM4E)?
Its value is “submicromolar”.

What does the source list for `O=c1c(O)c(-c2cc(O)c(O)c(O)c2)oc2cc(O)cc(O)c12` [Myricetin]?
Effect on immortalized normal PZ-HPV-7 line (PZ-HPV-7 cells): essentially no effect; H3K9me3 level in C4-2B cells [2]: dose-dependent increased level; H3K36me3 signal in C4-2B cells [2]: relatively comparable signal; Demethylation of H3K9me3 by KDM4C (KDM4C [3]): significantly reduced such an activity; Enzymatic inhibitory kinetics, mode (KDM4C) (KDM4C [4]): competitive mode; IC50 (KDM4B): 1.3 µM; Enzymatic inhibitory kinetics, mode (KDM4B) (KDM4B; toward α-ketoglutarate, FIG. 2A): competitive inhibition mode; Cell proliferation of C4-2B (C4-2B cells [5]): blocked; Cytotoxic effect alone, compared with enzalutamide alone (C4-2B cells [6]): better cytotoxic effect; Cell growth of LNCaP (LNCaP cells): significantly reduced level of cell growth; Antitumor activity compared with the vehicle control group (C4-2B xenografts [7]): significant antitumor activity; IC50 (C4-2B cells [8]): 38.3 µM

For `O=c1c(O)c(-c2ccc(O)c(O)c2)oc2cc(O)cc(O)c12` [Quercetin], which “Inhibitory effects of Myricetin analogues against KDM4B activity” value (KDM4B) is on record?
The value was “significant inhibitory effects”.

Which “Endothelial cell-specific marker CD31 in xenografts” value (C4-2B xenografts [9]) does the source give for `CNC(=O)c1ccc(N2C(=S)N(c3ccc(C#N)c(C(F)(F)F)c3)C(=O)C2(C)C)cc1F` [enzalutamide] here?
The value was “significantly higher level of CD31 was seen in the vehicle group”.

And the “Expression of proliferation marker Ki-67 in xenografts” value (C4-2B xenografts [9])?
Its value is “significantly lower expression”.

And the “Antitumor activity compared with the vehicle control group” value (C4-2B xenografts [7])?
Its value is “significant antitumor activity”.
